Reference: PubChem BioAssay (NCI)
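Dose response: 5 concentrations. Exposure: 48 h. Format: 96-well plates. Endpoint: linear interpolation; highest concentration if not reached. GI50 = concentration required for 50% inhibition of growth. TGI is the concentration that stops growth completely.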

Key:
Test in all cases: DTP human tumour cell line panel, 48 h
[1] = tested on: K-562 leukemia
[2] = tested on: SK-MEL-28 melanoma
[3] = tested on: MCF7 breast
[4] = tested on: COLO 205 colon
[5] = tested on: SN12C renal
[6] = tested on: SF-295 CNS
[7] = tested on: HCT-116 colon
[8] = tested on: DU-145 prostate
[9] = tested on: OVCAR-5 ovarian
[10] = tested on: SK-MEL-5 melanoma
[11] = tested on: NCI-H522 lung
[12] = tested on: MDA-MB-435
[13] = tested on: SW-620 colon
[14] = tested on: OVCAR-8 ovarian
[15] = tested on: U251 CNS
[16] = tested on: KM12 colon
[17] = tested on: NCI/ADR-RES ovarian
[18] = tested on: A498 renal
[19] = tested on: UO-31 renal
[20] = tested on: M14 melanoma
[21] = tested on: HCC-2998 colon
[22] = tested on: OVCAR-3 ovarian
[23] = tested on: IGROV1 ovarian
[24] = tested on: SF-268 CNS
[25] = tested on: NCI-H460 lung
[26] = tested on: HS 578T breast
[27] = tested on: EKVX NSCLC
[28] = tested on: BT-549 breast
[29] = tested on: OVCAR-4 ovarian
[30] = tested on: HCT-15 colon
[31] = tested on: RXF 393 renal
[32] = tested on: A549 NSCLC
[33] = tested on: RPMI-8226 leukemia
[34] = tested on: MDA-MB-231 breast
[35] = tested on: PC-3 prostate
[36] = tested on: HOP-92 NSCLC
[37] = tested on: TK-10 renal
[38] = tested on: CAKI-1 renal
[39] = tested on: MDA-MB-468 breast
[40] = tested on: UACC-257 melanoma
[41] = tested on: HL-60(TB) leukemia
[42] = tested on: 786-0 renal
[43] = tested on: HT29 colon
[44] = tested on: LOX IMVI melanoma
[45] = tested on: SR leukemia
[46] = tested on: NCI-H226 lung
[47] = tested on: SF-539 CNS
[48] = tested on: SK-MEL-2 melanoma
[49] = tested on: MALME-3M melanoma
[50] = tested on: SNB-19 CNS
[51] = tested on: ACHN renal
[52] = tested on: NCI-H23 lung
[53] = tested on: T-47D breast
[54] = tested on: CCRF-CEM leukemia
[55] = tested on: SNB-75 CNS
[56] = tested on: HOP-62 NSCLC
[57] = tested on: SK-OV-3 ovarian
[58] = tested on: UACC-62 melanoma
[59] = tested on: MOLT-4 leukemia

COc1ccc(CN2[C@@H](C(=O)NCc3ccc(C(=O)NO)cc3)Cc3c([nH]c4ccccc34)[C@@H]2C2CC2)cc1
GI50 [1]: 1.67 µM | TGI [1]: > 19.8 µM | GI50 [2]: 1.98 µM | TGI [2]: 5.88 µM | GI50 [3]: 2.33 µM | TGI [3]: 12 µM | GI50 [4]: 3.47 µM | TGI [4]: 8.03 µM | GI50 [5]: 3.86 µM | TGI [5]: 13.4 µM | GI50 [6]: 2.92 µM | TGI [6]: 6.05 µM | GI50 [7]: 2.08 µM | TGI [7]: > 19.8 µM | GI50 [8]: 4.38 µM | TGI [8]: > 19.8 µM | GI50 [9]: 1.87 µM | TGI [9]: 6.05 µM | GI50 [10]: 2.6 µM | TGI [10]: 5.25 µM | GI50 [11]: 0.964 µM | TGI [11]: 5.06 µM | GI50 [12]: 0.638 µM | TGI [12]: 2.67 µM | GI50 [13]: 2.26 µM | TGI [13]: 8.03 µM | GI50 [14]: 2.56 µM | TGI [14]: 9.71 µM | GI50 [15]: 2.67 µM | TGI [15]: 6.78 µM | GI50 [16]: 3.51 µM | TGI [16]: 16.7 µM | GI50 [17]: 4.05 µM | TGI [17]: 13.8 µM | GI50 [18]: 2.77 µM | TGI [18]: 7.99 µM | GI50 [19]: 3 µM | TGI [19]: 5.72 µM | GI50 [20]: 4.07 µM | TGI [20]: > 19.8 µM | GI50 [21]: 2.6 µM | TGI [21]: 5.59 µM | GI50 [22]: 3.41 µM | TGI [22]: 14.7 µM | GI50 [23]: 2.6 µM | TGI [23]: 5.78 µM | GI50 [24]: 4.4 µM | TGI [24]: 13 µM | GI50 [25]: 3.14 µM | TGI [25]: 9.21 µM | GI50 [26]: 1.85 µM | TGI [26]: 14.4 µM | GI50 [27]: 3.2 µM | TGI [27]: 10.9 µM | GI50 [28]: 4.99 µM | TGI [28]: 9.96 µM | GI50 [29]: 4.74 µM | TGI [29]: > 19.8 µM | GI50 [30]: 3.75 µM | TGI [30]: 10.5 µM | GI50 [31]: 0.797 µM | TGI [31]: 4.09 µM | GI50 [32]: 3.54 µM | TGI [32]: 9.02 µM | GI50 [33]: 2.92 µM | TGI [33]: > 19.8 µM | GI50 [34]: 2.43 µM | TGI [34]: 7.52 µM | GI50 [35]: 3.12 µM | TGI [35]: > 19.8 µM | GI50 [36]: 2.62 µM | TGI [36]: 6.65 µM | GI50 [37]: 3.17 µM | TGI [37]: 10.1 µM | GI50 [38]: 2.39 µM | TGI [38]: 6.73 µM | GI50 [39]: 1 µM | TGI [39]: 4.34 µM | GI50 [40]: 2.39 µM | TGI [40]: 9.74 µM | GI50 [41]: 2.73 µM | TGI [41]: > 19.8 µM | GI50 [42]: 3.98 µM | TGI [42]: 13 µM | GI50 [43]: 4.84 µM | TGI [43]: > 19.8 µM | GI50 [44]: 2.37 µM | TGI [44]: 4.81 µM | GI50 [45]: > 19.8 µM | TGI [45]: > 19.8 µM | GI50 [46]: 3.41 µM | TGI [46]: 10.1 µM | GI50 [47]: 2.48 µM | TGI [47]: 5.71 µM | GI50 [48]: 4.11 µM | TGI [48]: 12 µM | GI50 [49]: 0.847 µM | TGI [49]: 4.17 µM | GI50 [50]: 2.89 µM | TGI [50]: 6.8 µM | GI50 [51]: 3.52 µM | TGI [51]: 9.33 µM | GI50 [52]: 2.75 µM | TGI [52]: 5.77 µM | GI50 [53]: 3.82 µM | TGI [53]: 12.6 µM | GI50 [54]: 0.996 µM | TGI [54]: > 19.8 µM | GI50 [55]: 1.13 µM | TGI [55]: 5.68 µM | GI50 [56]: 3.48 µM | TGI [56]: 8.58 µM | GI50 [57]: 2.87 µM | TGI [57]: 6.97 µM | GI50 [58]: 1.55 µM | TGI [58]: 4.6 µM | GI50 [59]: 1.85 µM | TGI [59]: > 19.8 µM
